Results taken from US9617283B2, “Bicyclic heterocycle compounds and their uses in therapy” (ASTEX THERAPEUTICS LIMITED, priority 2012, dated 2017).
Structures can show the parent of a compound that is named as a salt. Where two headings read alike, the source gives them in different places.

Legend:
[1] = target: T1, BIR3 domain of human XIAP (residues 252-350) (Homo sapiens, UniProt P98170); test: XIAP in vitro competitive displacement binding assay (fluorescence polarization); conditions: percent inhibition (PI) at 0.04 μM; for Xiap IC50 or PI μM: 60 min, dihydrochloride, 0.04 µM; for inhibition at 0.04 µM: 1 h, read-out: Xiap IC50 or PI μM
T1 construct: BIR3 domain of human XIAP (residues 252-350); His-tag (cleaved yes); made in house; host or cells: Escherichia coli
T1 sequence (P98170 252-350): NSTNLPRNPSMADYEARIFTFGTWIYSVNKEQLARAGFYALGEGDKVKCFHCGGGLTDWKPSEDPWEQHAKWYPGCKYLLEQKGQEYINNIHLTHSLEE

[2] = tested on: EVSA-T (human breast carcinoma); test: Anti-proliferative activity, Alamar Blue assay, EVSA-T; assay type: cell-based
Method: Anti-Proliferative Activity
The method is based on the ability of viable cells to reduce resazurin to its fluorescent product resorufin. For each proliferation assay cells are plated onto 96 well plates and allowed to recover for 16 hours prior to the addition of inhibitor compounds (in 0.1% DMSO v/v) for a further 72 hours. […] The anti-proliferative activities of compounds of the invention can be determined by measuring the ability of the compounds to inhibit growth in 3 cancer cell lines: • EVSA-T (human breast carcinoma) DSMZ cat. no.

[3] = target: T2, BIR3 domain of human cIAP-1 (residues 267-363) (Homo sapiens, UniProt Q13490); test: cIAP-1 in vitro competitive displacement binding assay (fluorescence polarization)
T2 construct: human cIAP-1 (residues 267-363) fused to a GST-tag; GST-tag (cleaved yes); made in house; host or cells: Escherichia coli
T2 sequence (Q13490 267-363): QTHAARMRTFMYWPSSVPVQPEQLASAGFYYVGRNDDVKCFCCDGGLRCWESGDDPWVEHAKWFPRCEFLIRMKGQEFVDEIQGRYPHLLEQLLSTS

[4] = EVSA-T cell line, 72 hours, Alamar Blue; dihydrochloride; read-out: EVSA-T prolif
[5] = Homo sapiens, EVSA-T; read-out: EC50 in EVSA-T cell line assays
[6] = Homo sapiens, EVSA-T, 72 h, EVSA-T cell line, 72 hours, Alamar Blue; read-out: EVSA-T prolif

SMILES	EC50 [2, 5]	inhibition at 0.04 µM [1]	EC50 [2, 6]	other results
CCC1CN(C[C@H]2CN[C@H](C)CN2CC(=O)N2CC(C)(C)c3ncc([C@@H](O)c4ccc(F)cc4)cc32)C(=O)CO1 (single isomer, unassigned) [Example 111, (R or S)-6-ethyl-4-{[(2R,5R)-1-(2-{6-[(S)-(4-Fluorophenyl)(hydroxy)methyl]-3,3-dimethyl-1H,2H,3H-pyrrolo[3,2-b]pyridin-1-yl}-2-oxoethyl)-5-methylpiperazin-2-yl]methyl}morpholin-3-one dihydrochloride]	< 1000 nM			Xiap IC50 or PI μM [1]: 68%@0.04; EC50 [2, 4]: 77 nM; cIAP1 IC50 or PI μM ([3]; percent inhibition (PI) at […], 180 min, dihydrochloride, […]): 62%@0.012
C[C@@H]1CC(=O)N(C[C@H]2CN[C@H](C)CN2CC(=O)N2CC(C)(C)c3ncc(Cc4ccc(F)cc4F)cc32)C1 [Example 70, (4R)-1-{[(2R,5R)-1-(2-{6-[(2,4-Difluorophenyl)methyl]-3,3-dimethyl-1H,2H,3H-pyrrolo[3,2-b]pyridin-1-yl}-2-oxoethyl)-5-methylpiperazin-2-yl]methyl}-4-methylpyrrolidin-2-one dihydrochloride]	< 1000 nM	55%	3.2 nM	
C[C@@H]1CN(CC(=O)N2CC(C)(C)c3ncc(Cc4ccc(F)cc4F)cc32)[C@@H](CN2C[C@H](C)OCC2=O)CN1 (single isomer, unassigned) [Example 23, (6R or 6S)-4-{[(2R,5R)-1-(2-{6-[(2,4-Difluorophenyl)methyl]-3,3-dimethyl-1H,2H,3H-pyrrolo[3,2-b]pyridin-1-yl}-2-oxoethyl)-5-methylpiperazin-2-yl]methyl}-6-methylmorpholin-3-one, dihydrochloride]	< 1000 nM	64%	2.8 nM	
CCCC(F)(F)c1cc2c(nn1)C(C)(C)CN2C(=O)CN1C[C@@H](C)NC[C@@H]1CN1Cc2ccccc2C1=O [Example 59, 2-{[(2R,5R)-1-{2-[3-(1,1-Difluorobutyl)-7,7-dimethyl-5H,6H,7H-pyrrolo[3,2-c]pyridazin-5-yl]-2-oxoethyl}-5-methylpiperazin-2-yl]methyl}-2,3-dihydro-1H-isoindol-1-one dihydrochloride]	< 1000 nM	68%	1.6 nM	
C[C@@H]1CN(CC(=O)N2CC(C)(C)c3ncc(Cc4ccc(F)cc4F)cc32)[C@@H](CN2Cc3ccc(C#N)cc3C2=O)CN1 [Example 112, 2-{[(2R,5R)-1-(2-{6-[(2,4-Difluorophenyl)methyl]-3,3-dimethyl-1H,2H,3H-pyrrolo[3,2-b]pyridin-1-yl}-2-oxoethyl)-5-methylpiperazin-2-yl]methyl}-3-oxo-2,3-dihydro-1H-isoindole-5-carbonitrile dihydrochloride]	< 1000 nM	85%	2.7 nM	
C[C@@H]1CN(CC(=O)N2CC(C)(C)c3nnc(Cc4ccc(F)cc4F)cc32)[C@@H](CN2Cc3cccc(F)c3C2=O)CN1 [Example 113, 2-{[(2R,5R)-1-(2-{3-[(2,4-Difluorophenyl)methyl]-7,7-dimethyl-5H,6H,7H-pyrrolo[3,2-c]pyridazin-5-yl}-2-oxoethyl)-5-methylpiperazin-2-yl]methyl}-7-fluoro-2,3-dihydro-1H-issoindol-1-one dihydrochloride]	< 1000 nM	69%	0.62 nM	
C[C@@H]1CN(CC(=O)N2CC(C)(C)c3ncc(Cc4ccc(F)cc4)cc32)[C@@H](CN2CC(C)(C)OC2=O)CN1 [Example 5, 3-{[(2R,5R)-1-(2-{6-[(4-Fluorophenyl)methyl]-3,3-dimethyl-1H,2H,3H-pyrrolo[3,2-b]pyridin-1-yl}-2-oxoethyl)-5-methylpiperazin-2-yl]methyl}-5,5-dimethyl-1,3-oxazolidin-2-one dihydrochloride]	< 1000 nM	44%	6.2 nM	
CCCC(F)(F)c1cc2c(cn1)C(C)(C)CN2C(=O)CN1C[C@@H](C)NC[C@@H]1CN1Cc2ccncc2C1=O [Example 78, 2-{[(2R,5R)-1-{2-[6-(1,1-Difluorobutyl)-3,3-dimethyl-1H,2H,3H-pyrrolo[3,2-c]pyridin-1-yl]-2-oxoethyl}-5-methylpiperazin-2-yl]methyl}-1H,2H,3H-pyrrolo[3,4-c]pyridin-3-one dihydrochloride]	< 1000 nM	64%	3.4 nM	
C[C@@H]1CN(CC(=O)N2CC(C)(C)c3cnc(Cc4ccc(F)cc4F)cc32)[C@@H](CN2Cc3ccccc3C2=O)CN1 [Example 77, 2-{[(2R,5R)-1-(2-{6-[(2,4-Difluorophenyl)methyl]-3,3-dimethyl-1H,2H,3H-pyrrolo[3,2-c]pyridin-1-yl}-2-oxoethyl)-5-methylpiperazin-2-yl]methyl}-2,3-dihydro-1H-isoindol-1-one dihydrochloride]	< 1000 nM	90%	0.17 nM	
C[C@@H]1CN(CC(=O)N2CC(C)(C)c3ncc(Cc4ccc(F)cc4F)cc32)[C@@H](CN2Cc3cc(O)ccc3C2=O)CN1 [Example 105, 2-{[(2R,5R)-1-(2-{6-[(2,4-Difluorophenyl)methyl]-3,3-dimethyl-1H,2H,3H-pyrrolo[3,2-b]pyridin-1-yl}-2-oxoethyl)-5-methylpiperazin-2-yl]methyl}-5-hydroxy-2,3-dihydro-1H-isoindol-1-one dihydrochloride]	< 1000 nM	90%	6.5 nM	
C[C@@H]1CN(CC(=O)N2CC(C)(C)c3cnc(Cc4ccc(F)cc4F)cc32)[C@@H](CN2CC(C)(C)CC2=O)CN1 [Example 32, 1-{[(2R,5R)-1-(2-{6-[(2,4-Difluorophenyl)methyl]-3,3-dimethyl-1H,2H,3H-pyrrolo[3,2-c]pyridin-1-yl}-2-oxoethyl)-5-methylpiperazin-2-yl]methyl}-4,4-dimethylpyrrolidin-2-one dihydrochloride]	< 1000 nM	71%	1.3 nM	
CCCC(F)(F)c1cc2c(cn1)C(C)(C)CN2C(=O)CN1C[C@@H](C)NC[C@@H]1CN1CC(C)=C(C)C1=O [Example 28, 1-{[(2R,5R)-1-{2-[6-(1,1-Difluorobutyl)-3,3-dimethyl-1H,2H,3H-pyrrolo[3,2-c]pyridin-1-yl]-2-oxoethyl}-5-methylpiperazin-2-yl]methyl}-3,4-dimethyl-2,5-dihydro-1H-pyrrol-2-one, dihydrochloride]	< 1000 nM	67%	10 nM	
CCCC(O)c1cnc2c(c1)N(C(=O)CN1C[C@@H](C)NC[C@@H]1CN1Cc3ccccc3C1=O)CC2(C)C (single isomer, unassigned) [Example 91, dihydrochloride]				Xiap IC50 or PI μM [1]: 40%@0.04; EC50 [2, 4]: 330 nM; inhibition at 0.04 µM ([3]; 3 h, percent inhibition (PI) at 0.04 μM, read-out: cIAP1 IC50 or PI μM): 53%
C[C@@H]1CN(CC(=O)N2CC(C)(C)c3cnc(Cc4ccc(F)cc4)cc32)[C@@H](CN2Cc3ncccc3C2=O)CN1 [Example 20, 6-{[(2R,5R)-1-(2-{6-[(4-Fluorophenyl)methyl]-3,3-dimethyl-1H,2H,3H-pyrrolo[3,2-c]pyridin-1-yl}-2-oxoethyl)-5-methylpiperazin-2-yl]methyl}-5H,6H,7H-pyrrolo[3,4-b]pyridin-5-one, dihydrochloride]		76%		EVSA-T prolif μM ([2]; EVSA-T cell line, % at 0.001 μM): 92% at; EC50 ([2]; Homo sapiens, EVSA-T, read-out: EC50 in EVSA-T cell line assays): < 1000 nM
